These results are taken from patent publication US10351548B2, “2-oxo-1,2-dihydropyridine-3-carboxamide compounds and their use as inhibitors of PDK1” (INTERNATIONAL SOCIETY FOR DRUG DEVELOPMENT S.R.L., priority 2015, dated 2019).

One assay deals with PDK1 Direct kinase (Homo sapiens (Human), UniProt O15530). Description: Kinase-specific FRET-based Z'-LYTE assay against PDK1 Direct kinase. Type of assay: biochemical. As to conditions: for IC50: read-out: PDK1 IC50. The method, then: The compounds of Formula (I) and (II) were tested in the biological test named Kinase-specific Z′-LYTE® assay (Invitrogen Corporation, Life Technologies).

The next assay has as its system U87MG cells. Description: U87MG cell proliferation, MTS assay. As to conditions: Homo sapiens, U-87 MG; 72 h, MTS assay; read-out: IC50 U87MG. Type of assay: cell-based, human. The method, then: (§1) The U87MG cell line was obtained from the National Institute for Cancer Research of Genoa (Italy) and cultured in DMEM 10% FBS and 2 mM glutamine. To isolate GSCs, approximately 2.0×10^6 cells were suspended in 1 mL of a defined serum-free Neural Stem Cell (NSC) medium (Daniele, S., et al., Modulation of A1 and A2B adenosine receptor activity: a new strategy to sensitise glioblastoma stem cells to chemotherapy. Cell death & disease, 2014. 5(11): p. e1539). After 3-4 days of culture, the neurospheres were collected, suspended in NSC medium, dissociated into single cells, and plated for the assays. For the long-term treatment of cells, NSC or complete medium containing drugs was replaced every two to three days.
(§2) The human U87MG cells or GSCs were seeded at a density of 3×10^3 cells/well. After 24 h, the cells were treated from one to seven days with fresh growth medium containing different concentrations of SA16, SA23 or IB35. Following the treatment period, cell proliferation was determined using the MTS assay according to manufacturer's instruction. The absorbance of formazan at […] was measured in a colorimetric assay with an automated plate reader (Victor Wallac 2, Perkin Elmer). The results were calculated by subtracting the mean background from the values obtained from each evaluation and were expressed as the percentage of the control (untreated cells). Sigmoid dose-response curve was generated, from which the IC50 values were derived.
As representative GBM cell line, the above U87MG cells were used; this human cell line resulted an appropriate model to study the effects of PDK1 inhibition, because it is deficient for the tumour suppressor phosphatase and tensin homologue (PTEN), a negative regulator of the PI3K/AKT pathway (Wang, S. I., et al., Somatic mutations of PTEN in glioblastoma multiforme. Cancer research, 1997. 57(19): p. 4183-4186). To examine the effects of SA16, SA23 and IB35 on GBM cell growth/survival, U87MG cells were incubated with different concentrations of the new compounds (1 nM-10 μM) for 24 and 72 h. Specifically, U87MG cells were treated in complete medium with different concentrations of SA16, SA23 or IB35 (1 nM-10 μM) for 24 h (A) or 72 h (B). At the end of treatment, cell proliferation was measured using the MTS assay. The data are expressed as a percentage with respect to that of untreated cells (control), which was set to 100%, and are the mean values±SEM of three independent experiments, each performed in duplicate. The significance of the differences reported in FIGS. 1 and 2 was determined with a one-way ANOVA with Bonferroni post-test (* p<0.05, **p<0.01, *** p<0.001 vs. control cells).
A general note: Formazan colour is commonly taken as a measure of viable cells.

Assay [1] deals with GSCs isolated from U87MG cells. The assay is described as follows: GSC proliferation, MTS assay. The class given is cell-based, human. The note with it: Homo sapiens, U-87 MG, 168 h; seven days of treatment, MTS assay. Here is the method:
as §1, §2
The inhibition of PDK1 has been reported as potentially effective therapeutic approach to reduce self-renewal and propagation of GSCs (Signore, M., et al., Combined PDK1 and CHK1 inhibition is required to kill glioblastoma stem-like cells in vitro and in vivo. Cell death & disease, 2014. 5(5): p. e1223). On this basis, the effects of SA16, SA23 and IB35 on GSCs, isolated from U87MG cells as previously reported, were evaluated (Daniele, S., et al., Modulation of A1 and A28 adenosine receptor activity: a new strategy to sensitise glioblastoma stem cells to chemotherapy. Cell death & disease, 2014. 5(11): p. e1539). U87MG-derived GSCs were incubated with the indicated concentrations of IB35, SA23 or SA16 for four days (FIG. 8) or seven days (FIG. 9). At the end of the treatment periods, cell proliferation was measured using the MTS assay. The data were expressed as a percentage with respect to that of untreated cells (control), which was set to 100%, and are the mean values±SEM of three independent experiments, each performed in duplicate. IC50 values after seven days of treatment were calculated from sigmoid dose-response curve (FIG. 9). The significance of the differences was determined with a one-way ANOVA with Bonferroni post-test (** p<0.01, *** p<0.001 vs. control).

PDK1 Direct kinase, sequence (O15530 whole entry): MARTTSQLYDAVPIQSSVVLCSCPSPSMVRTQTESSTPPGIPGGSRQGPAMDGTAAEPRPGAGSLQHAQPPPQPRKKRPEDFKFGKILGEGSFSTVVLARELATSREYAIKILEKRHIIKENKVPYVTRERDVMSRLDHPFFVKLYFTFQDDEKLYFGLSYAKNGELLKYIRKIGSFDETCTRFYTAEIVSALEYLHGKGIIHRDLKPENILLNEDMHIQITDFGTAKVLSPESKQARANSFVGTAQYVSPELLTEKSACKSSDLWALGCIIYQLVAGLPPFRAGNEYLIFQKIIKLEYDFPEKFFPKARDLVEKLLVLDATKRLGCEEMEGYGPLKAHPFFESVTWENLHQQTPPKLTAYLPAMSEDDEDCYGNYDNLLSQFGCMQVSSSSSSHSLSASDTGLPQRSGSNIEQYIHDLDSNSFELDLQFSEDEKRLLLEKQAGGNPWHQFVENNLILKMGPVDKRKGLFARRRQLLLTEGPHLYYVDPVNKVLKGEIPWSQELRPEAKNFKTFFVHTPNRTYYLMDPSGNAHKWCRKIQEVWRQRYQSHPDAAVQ

In the case of `O=C1Nc2ccc(NC(=O)c3cccn(Cc4ccc(F)c(F)c4)c3=O)cc2/C1=C/c1cnc[nH]1` [JJ31, (Z)—N-(3-((1H-imidazol-5-yl)methylene)-2-oxoindolin-5-yl)-1-(3,4-difluorobenzyl)-2-oxo-1,2-dihydropyridine-3-carboxamide], on PDK1 Direct kinase, the inhibition (usually the percentage by which the read-out fell short of the control) at 10 µM is > 50% and the IC50 (usually the midpoint of a concentration-inhibition curve) is 512 nM. As for `CO[C@H]1C[C@@H]2CC[C@@H](C)[C@@](O)(O2)C(=O)C(=O)N2CCCC[C@H]2C(=O)O[C@H]([C@H](C)C[C@@H]2CC[C@@H](OCCO)[C@H](OC)C2)CC(=O)[C@H](C)/C=C(\C)[C@@H](O)[C@@H](OC)C(=O)[C@H](C)C[C@H](C)/C=C/C=C/C=C/1C` [Everolimus, reference compound], the IC50 in the assay on U87MG cells was found to be 50 ± 2.8 nM; in assay [1], 15 ± 1.2 nM. `O=C(CCNC(=O)c1cccn(Cc2ccc(F)c(F)c2)c1=O)Nc1ccc2c(c1)/C(=C/c1cccs1)C(=O)N2` [DD22, (E/Z)-1-(3,4-difluorobenzyl)-2-oxo-N-(3-oxo-3-((2-oxo-3-(thiophen-2-ylmethylene)indolin-5-yl)amino)propyl)-1,2-dihydropyridine-3-carboxamide]: on PDK1 Direct kinase, the inhibition at 10 µM was > 50% and the IC50 is 1340 nM.

Regarding `O=C(CNC(=O)c1cccn(Cc2ccc(F)c(F)c2)c1=O)Nc1ccc2c(c1)C(=Cc1cccs1)C(=O)N2` (mixture of isomers) [IB36, (E/Z)-1-(3,4-difluorobenzyl)-2-oxo-N-(2-oxo-2-((2-oxo-3-(thiophe-2-ylmethylene)indolin-5-yl)amino)ethyl)-1,2-dihydropyridine-3-carboxamide], on PDK1 Direct kinase, at 10 µM the inhibition was 19%. `O=C(CCNC(=O)c1cccn(Cc2ccc(F)c(F)c2)c1=O)Nc1ccc2c(c1)/C(=C/c1ccc(F)cc1)C(=O)N2` [DD23, (Z)-1-(3,4-difluorobenzyl)-N-(3-((3-(4-fluorobenzylidene)-2-oxoindolin-5-yl)amino)-3-oxopropyl)-2-oxo-1,2-dihydropyridine-3-carboxamide] showed an inhibition at 10 µM against PDK1 Direct kinase of 15%. Take `O=C(CCNC(=O)c1cccn(Cc2ccc(F)c(F)c2)c1=O)Nc1ccc2c(c1)/C(=C/c1cnc[nH]1)C(=O)N2` [DD21, (Z)—N-(3-((3-((1H-imidazol-5-yl)methylene)-2-oxoindolin-5-yl)amino)-3-oxopropyl)-1-(3,4-difluorobenzyl)-2-oxo-1,2-dihydropyridine-3-carboxamide]: on PDK1 Direct kinase, the inhibition at 10 µM is > 50%. Still for that read-out and setting: with `O=C1Nc2ccc(NC(=O)c3cccc(NC(=O)c4cccn(Cc5ccc(F)c(F)c5)c4=O)c3)cc2C1=Cc1cccs1` (mixture of isomers) [DD41, (E/Z)-1-(3,4-difluorobenzyl)-2-oxo-N-(3-((2-oxo-3-(thiophen-2-ylmethylene)indolin-5-yl)carbamoyl)phenyl)-1,2-dihydropyridine-3-carboxamide] the figure was 26%; with `O=C(CCNC(=O)c1cccn(Cc2ccc(F)c(F)c2)c1=O)Nc1ccc2c(c1)/C(=C/c1ncc[nH]1)C(=O)N2` [DD25, (Z/E)-N-(3-((3-((1H-imidazol-2-yl)methylene)-2-oxoindolin-5-yl)amino)-3-oxopropyl)-1-(3,4-difluorobenzyl)-2-oxo-1,2-dihydropyridine-3-carboxamide], 47%; with `O=C(CCCNC(=O)c1cccn(Cc2ccc(F)c(F)c2)c1=O)Nc1ccc2c(c1)/C(=C/c1cnc[nH]1)C(=O)N2` [DF8, (Z)-N-(4-((3-((1H-imidazol-5-yl)methylene)-2-oxoindolin-5-yl)amino)-4-oxobutyl)-1-(3,4-difluorobenzyl)-2-oxo-1,2-dihydropyridine-3-carboxamide], > 50%. As to `O=C(CNC(=O)c1cccn(Cc2ccc(F)c(F)c2)c1=O)Nc1ccc2c(c1)CC(=O)N2` [IB32, 1-(3,4-difluorobenzyl)-2-oxo-N-(2-oxo-2-((2-oxoindolin-5-yl)amino)ethyl)-1,2-dihydropyridine-3-carboxamide], at PDK1 Direct kinase, the inhibition at 10 µM was > 50% and the IC50 stood at 6680 nM.

Regarding `O=C(CCCNC(=O)c1cccn(Cc2ccc(F)c(F)c2)c1=O)Nc1ccc2c(c1)C(=Cc1cccs1)C(=O)N2` (mixture of isomers) [DF9, (E/Z)-1-(3,4-difluorobenzyl)-2-oxo-N-(4-oxo-4-((2-oxo-3-(thiophen-2-ylmethylene)indolin-5-yl)amino)butyl)-1,2-dihydropyridine-3-carboxamide], at PDK1 Direct kinase, the inhibition at 10 µM is > 50% and the IC50 came out at 5880 nM.
